Results from paper PMC6208296, “Redox regulation of pyruvate kinase M2 by cysteine oxidation and S-nitrosation” (Biochemical Journal, 2018).
Read-outs that look alike come from different tables or passages of the source.

Experiments:
Type in all cases: biochemical
M2PYK [1] = target: T1, M2PYK (Homo sapiens, UniProt P14618); test: enzyme activity assay, competition of activator Ser with inhibitors Ala and Phe
T1 construct: gene PKM; recombinant His-tagged WT M2 isoform

M2PYK [2] = target: T1, M2PYK; test: PYK enzyme activity assay, dose response with and without DTT and Ser
M2PYK [3] = target: T1, M2PYK; test: LDH-coupled enzyme assay with and without F-1,6-BP; protection from S-nitrosation (biotin switch)

T1 sequence (P14618 2-531): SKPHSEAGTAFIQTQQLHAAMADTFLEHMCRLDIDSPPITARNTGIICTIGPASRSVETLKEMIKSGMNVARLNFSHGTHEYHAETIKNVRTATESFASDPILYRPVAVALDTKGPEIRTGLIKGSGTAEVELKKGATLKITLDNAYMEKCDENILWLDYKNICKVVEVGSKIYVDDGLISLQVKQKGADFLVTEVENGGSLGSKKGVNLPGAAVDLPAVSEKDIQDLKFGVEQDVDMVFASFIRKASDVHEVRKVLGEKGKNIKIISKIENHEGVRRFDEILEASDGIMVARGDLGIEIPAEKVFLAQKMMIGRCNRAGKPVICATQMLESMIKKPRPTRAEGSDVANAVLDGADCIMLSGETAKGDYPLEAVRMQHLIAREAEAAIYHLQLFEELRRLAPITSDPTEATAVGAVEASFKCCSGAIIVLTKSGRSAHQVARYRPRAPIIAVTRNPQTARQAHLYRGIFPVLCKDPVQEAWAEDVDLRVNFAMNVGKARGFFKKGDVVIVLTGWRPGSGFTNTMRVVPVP

In the case of `N[C@@H](CO)C(=O)O` [Ser], the “enzyme activity assay, competition of activator Ser with inhibitors Ala and Phe” value (M2PYK [1]) is reported as “Increasing Ser concentration further reduces the inhibitory effect of Ala which is expected as Ala and Ser compete”.

Compound `C[C@H](N)C(=O)O` [L-alanine] has an IC50 (M2PYK [2]; read-out: IC50) of 45 µM.

`O=P(O)(O)OC[C@H]1OC(O)(COP(=O)(O)O)[C@@H](O)[C@@H]1O` (stereo partly shown) [fructose 1,6-bisphosphate] was tested, and the “LDH-coupled enzyme assay with and without F-1,6-BP; protection from S-nitrosatio” value (M2PYK [3]) was “M2PYK complexes with FBP and Phe stabilise M2PYK in a tetrameric state and reduce the amount of nitrosation”.

With `N[C@@H](Cc1ccccc1)C(=O)O` [L-phenylalanine] the IC50 (M2PYK [2]) was 57 µM.
